This note sets out measurements from patent US10183919B2 (priority 2014, dated 2019).

Structures can show the parent of a compound that is named as a salt. Where two headings read alike, the source gives them in different places.

Assay [1] deals with T1, Human MOR (Homo sapiens, UniProt P35372).
T1 construct: expressed in transfected cells; host or cells: HEK-293T
The experiment in a line: cell-based. The text has this:
(§1) Transfection. Human or mouse MOR cDNA was transfected alongside GαoB with RLuc8 inserted at position 91 (GαoB-RLuc8), Gβ1 (β1), and Gγ2 fused to the full-length mVenus at its N terminus (mVenus-γ2) into HEK-293T cells (5×10^6 cells/plate) in 10-cm dishes using PEI (Polysciences Inc.; Warrington, Pa.) in a 1:1 ratio diluted in Opti-MEM (Life Technologies Corp.; Grand Island, N.Y.) to assay for G protein activation as described previously (Rives, M.-L. et al. J. Biol. Chem. 2012, 287, 27050-4; Negri, A.; Rives, M.-L.; Caspers, M. J. et al. J. Chem. Inf. Model. 2013, 53, 521-526). Cells were maintained in the Dulbecco's Modified Eagle Medium (high glucose #11965; Life Technologies) supplemented with 10% FBS (Premium Select, Atlanta Biologicals; Atlanta, Ga.) and 100 U/mL penicillin and 100 μg/mL streptomycin (#15140, Life Technologies). After 24 hours the media was changed, and the experiment was performed 24 hours later (48 hours after transfection).
(§2) BRET. Transfected cells were dissociated and resuspended in phosphate-buffered saline (PBS). Approximately 200,000 cells/well were added to a black-framed, white well 96-well plate (#60050; Perkin Elmer; Waltham, Mass.). The microplate was centrifuged and the cells were resuspended in PBS. Then 5 μM of the luciferase substrate coelenterazine H was added to each well for 5 minutes. Following coelenterazine H addition, ligands were added and the BRET signal was measured at 5 minutes on a PHERAstar FS plate reader. Quantification of the BRET signal required calculating the ratio of the light emitted by the energy acceptor, mVenus (510-540 nm), over the light emitted by the energy donor, RLuc8 (485 nm). […] Dose response curves were fit using three-parameter logistics equation in GraphPad Prism 6.

The target of assay [2] is T2, Mouse MOR (Mus musculus, UniProt P42866).
T2 construct: expressed in transfected cells; host or cells: HEK-293T
T2 sequence (P42866 whole entry): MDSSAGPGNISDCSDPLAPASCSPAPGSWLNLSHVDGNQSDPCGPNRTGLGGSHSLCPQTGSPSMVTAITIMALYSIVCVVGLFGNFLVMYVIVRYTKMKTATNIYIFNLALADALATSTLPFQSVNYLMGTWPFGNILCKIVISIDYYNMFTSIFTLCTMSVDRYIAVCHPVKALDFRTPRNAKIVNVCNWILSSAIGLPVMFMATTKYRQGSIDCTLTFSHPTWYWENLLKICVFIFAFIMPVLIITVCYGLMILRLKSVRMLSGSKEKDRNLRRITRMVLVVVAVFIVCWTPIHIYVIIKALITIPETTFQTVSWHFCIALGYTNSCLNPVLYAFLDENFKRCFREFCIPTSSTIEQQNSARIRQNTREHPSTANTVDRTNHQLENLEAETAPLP
The experiment in a line: BRET G protein activation assay, HEK-293T cells transfected with mouse MOR. Format: cell-based.
Text: as §1, §2

[3] abbreviates: BRET G protein activation, HEK-293T, mean ± SEM of independent trials, read-out: EC50 Human MOR.

T1 sequence (P35372 whole entry): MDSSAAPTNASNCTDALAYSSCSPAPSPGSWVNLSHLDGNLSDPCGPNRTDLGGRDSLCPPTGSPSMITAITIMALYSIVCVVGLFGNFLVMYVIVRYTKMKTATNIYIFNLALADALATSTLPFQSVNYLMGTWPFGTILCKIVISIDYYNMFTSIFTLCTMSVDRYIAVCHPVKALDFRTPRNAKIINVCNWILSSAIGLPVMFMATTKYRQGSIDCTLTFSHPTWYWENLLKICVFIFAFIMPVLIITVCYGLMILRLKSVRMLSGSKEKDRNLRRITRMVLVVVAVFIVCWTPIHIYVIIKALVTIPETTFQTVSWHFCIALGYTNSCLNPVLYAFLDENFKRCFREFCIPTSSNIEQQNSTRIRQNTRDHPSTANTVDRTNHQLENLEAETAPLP

Consider `CCCCCNC1c2ccccc2N(C)S(=O)(=O)c2ccccc21` (stereo not shown) [compound 8, 6-Methyl-11(pentylamino)-6,11-dihydrodibenzo[c,f][1,2]thiazepine 5,5-dioxide], for which the concentration for a half-maximal effect (EC50) in assay [1] is less than 10 µM; in assay [2] (BRET G protein activation, HEK-293T, mean ± SEM of independent trials, read-out: EC50 Mouse MOR) it was less than 10 µM.
Regarding `CCOC(=O)CCCCCCNC1c2ccccc2N(C)S(=O)(=O)c2ccccc21` (stereo not shown) [compound 9, Ethyl 7-((6-methyl-5,5-dioxido-6,11-dihydrodibenzo[c,f][1,2]thiazepin-11-yl)amino)heptanoate], the 50% effective concentration (EC50) in assay [1] and in assay [2] was less than 10 µM each time.
`CCOC(=O)CCCCCCNC1c2ccccc2N(C)S(=O)(=O)c2cc(I)ccc21` (stereo not shown) [compound 49, Ethyl 7-((3-iodo-6-methyl-5,5-dioxido-6,11-dihydrodibenzo[c,f][1,2]thiazepin-11-yl)amino)heptanoate]: the EC50 in assay [1] was found to be 0.137 ± 0.017 µM.
Still for that read-out and setting: in the case of `COCCCNC1c2ccccc2S(=O)(=O)N(C)c2c(OC)cccc21` (stereo not shown) [compound 50] it was less than 20 µM; in that of `CCOC(=O)CCCCCCNC1c2ccccc2S(=O)(=O)N(C)c2c(OC)cccc21` (stereo not shown) [compound 51, Ethyl 7-((7-methoxy-6-methyl-5,5-dioxido-6,11-dihydrodibenzo[c,f][1,2]thiazepin-11-yl)amino)heptanoate], less than 10 µM.
On the same count and under the same terms, the same measure for `CN1c2ccccc2C(NCCCCCCC(N)=O)c2ccc(Cl)cc2S1(=O)=O` (stereo not shown) [compound 52]: less than 10 µM.
The molecule `COCCCNC1c2ccccc2N(C)S(=O)(=O)c2cc(Br)ccc21` (stereo not shown) [compound 53, 3-Bromo-11-((3-methoxypropyl)amino)-6-methyl-6,11-dihydrodibenzo[c,f] [1,2]thiazepine 5,5-dioxide] yielded an EC50 in assay [1] of 0.0741 ± 0.0179 µM.
Turning to `COCCCNC1c2ccccc2N(C)S(=O)(=O)c2cc(-c3ccccc3)ccc21` (stereo not shown) [compound 56, 11-((3-Methoxypropyl)amino)-6-methyl-3-phenyl-6,11-dihydrodibenzo[c,f][1,2]thiazepine 5,5-dioxide], the EC50 in assay [1] is less than 10 µM.
Same read-out and setting: the same measure for `CN1c2ccccc2C(NCCCCCCC(=O)NCCO)c2ccc(Cl)cc2S1(=O)=O` (stereo not shown) [compound 57, 7-((3-Chloro-6-methyl-5,5-dioxido-6,11-dihydrodibenzo [c,f][1,2]thiazepin-11-yl)amino)-N-(2-hydroxyethyl) heptanamide]: less than 10 µM; for `CN1c2ccccc2C(NCCCCCCC2=NCCO2)c2ccc(Cl)cc2S1(=O)=O` (stereo not shown) [compound 58, 3-Chloro-11-((6-(4,5-dihydrooxazol-2-yl)hexyl)amino)-6-methyl-6,11-dihydrodibenzo[c,f][1,2]thiazepine 5,5-dioxide]: less than 10 µM.
The molecule `COCCCNC1c2ccccc2N(C)S(=O)(=O)c2cc(OC(C)=O)ccc21` (stereo not shown) [compound 59, 11-((3-Methoxypropyl)amino)-6-methyl-5,5-dioxido-6,11-dihydrodibenzo[c,f][1,2]thiazepin-3-yl acetate] showed a concentration for a half-maximal effect (EC50) in assay [1] of less than 10 µM.
Molecule `COCCCNC1c2ccccc2N(C)S(=O)(=O)c2ccc(Cl)cc21` (stereo not shown) [compound 60] displayed an EC50 in assay [1] of less than 20 µM.
`CCOC(=O)CCCCCCNC1c2ccccc2N(C)S(=O)(=O)c2ccc(Cl)cc21` (stereo not shown) [compound 61, Ethyl 7-((2-chloro-6-methyl-5,5-dioxido-6,11-dihydrodibenzo[c,f] [1,2]thiazepin-11-yl)amino)heptanoate] returned an EC50 in assay [1] of less than 10 µM.
Regarding `CCOC(=O)CCCCCCNC1c2ccccc2S(=O)(=O)N(C)c2c(O)cccc21` (stereo not shown) [compound 62], the EC50 in assay [1] (setting [3]) is greater than 20 µM.
In assay [1], `COCCCNC1c2ccccc2N(C)S(=O)(=O)c2cc(SC(C)C)ccc21` (stereo not shown) [compound 63, 3-(Isopropylthio)-11-((3-methoxypropyl)amino)-6-methyl-6,11-dihydrodibenzo[c,f][1,2]thiazepine 5,5-dioxide] registered an EC50 of less than 10 µM.
Take `CCSc1ccc2c(c1)S(=O)(=O)N(C)c1ccccc1C2NCCCOC` (stereo not shown) [compound 64, 3-(Ethylthio)-11-((3-methoxypropyl)amino)-6-methyl-6,11-dihydrodibenzo[c,f][1,2]thiazepine 5,5-dioxide]: the EC50 in assay [1] is less than 10 µM.
For the molecule `CCN1c2ccccc2C(NCCCOC)c2ccccc2S1(=O)=O` (stereo not shown) [compound 65, 6-Ethyl-11-((3-methoxpropyl)amino)-6,11-dihydrodibenzo[c,f][1,2]thiazepine 5,5-dioxide], the EC50 in assay [1] is greater than 20 µM.
Same read-out and setting: the same measure for `CCOC(=O)CCCCCCNC1c2ccccc2N(CC)S(=O)(=O)c2ccccc21` (stereo not shown) [compound 66, Ethyl 7-((6-ethyl-5,5-dioxido-6,11-dihydrodibenzo[c,f][1,2]thiazepin-11-yl)amino)heptanoate]: less than 10 µM; for `COCCCNC1c2ccc(Cl)cc2N(C)S(=O)(=O)c2ccccc21` (stereo not shown) [compound 69, 8-Chloro-11-((3-methoxypropyl)amino)-6-methyl-6,11-dihydrodibenzo [c,f][1,2]thiazepine 5,5-dioxide]: less than 20 µM; for `CCOC(=O)CCCCCCNC1c2ccc(Cl)cc2N(C)S(=O)(=O)c2ccccc21` (stereo not shown) [compound 70, Ethyl 7-((8chloro-6-methyl-5,5-dioxido-6,11-dihydrodibenzo[c,f][1,2]thiazepin-11-yl)amino)heptanoate]: less than 10 µM.
In the case of `CCOCCCNC1c2ccccc2N(C)S(=O)(=O)c2cc(Br)ccc21` (stereo not shown) [compound 71, 3-Bromo-11-((3-ethoxypropyl)amino)-6-methyl-6,11-dihydrodibenzo [c,f][1,2]thiazepine 5,5-dioxide], the EC50 in assay [1] (setting [3]) came to 0.222 ± 0.078 µM.
`COCCCNC1c2ccc(Br)cc2S(=O)(=O)N(C)c2ccsc21` (stereo not shown) [compound 72, 7-Bromo-10-((3-methoxypropyl)amino)-4-methyl-4,10-dihydrobenzo[f]thieno[3,2-c][1,2]thiazepine 5,5-dioxide]: in assay [1], the EC50 was less than 10 µM.
On to `CCOCCCNC1c2ccc(Br)cc2S(=O)(=O)N(C)c2ccsc21` (stereo not shown) [compound 73, 7-Bromo-10-((3-ethoxypropyl)amino)-4-methyl-4,10-dihydrobenzo[f]thieno[3,2-c][1,2]thiazepine 5,5-dioxide], for which, in assay [1], the EC50 was less than 10 µM.
The same measure, in the same setting: in the case of `CCOC(=O)CCCCCCNC1c2ccc(Br)cc2S(=O)(=O)N(C)c2ccsc21` (stereo not shown) [compound 74, Ethyl 7-((7-bromo-4-methyl-5,5-dioxido-4,10-dihydrobenzo[f]thieno[3,2-c][1,2]thiazepin-10-yl)amino)heptanoate] it was less than 10 µM.
On to `COCCCNC1c2ccccc2N(C)S(=O)(=O)c2cc(OCc3ccccc3)ccc21` (stereo not shown) [compound 75, 3-(Benzyloxy)-11-((3-methoxypropyl)amino)-6-methyl-6,11-dihydrodibenzo[c,f][1,2]thiazepine 5,5-dioxide], for which, in assay [1] (setting [3]), the 50% effective concentration (EC50) was greater than 20 µM.
In assay [1], `CCOCCCNC1c2ccccc2N(C)S(=O)(=O)c2cc(I)ccc21` (stereo not shown) [compound 76, 11-((3-Ethoxypropyl)amino)-3-iodo-6-methyl-6,11-dihydrodibenzo [c,f][1,2]thiazepine 5,5-dioxide] showed an EC50 of 0.145 µM.
Still for that read-out and setting: the same measure for `COCCCNC1c2ccc(Cl)cc2S(=O)(=O)N(C)c2ccsc21` (stereo not shown) [compound 77, 7-Chloro-10-((3-methoxypropyl)amino)-4-methyl-4,10-dihydrobenzo[f]thieno[3,2-c][1,2]thiazepine 5,5-dioxide]: less than 10 µM.
In assay [1], `CCOCCCNC1c2ccc(Cl)cc2S(=O)(=O)N(C)c2ccsc21` (stereo not shown) [compound 78, 7-Chloro-10-((-ethoxypropyl)amino)-4-methyl-4,10-dihydrobenzo[f]thieno[3,2-c][1,2]thiazepine 5,5-dioxide] yielded an EC50 of less than 10 µM.
Same read-out and setting: the same measure for `CCOC(=O)CCCCCCNC1c2ccc(Cl)cc2S(=O)(=O)N(C)c2ccsc21` (stereo not shown) [compound 79, Ethyl 7-((7-chloro-4-methyl-5,5-dioxido-4,10-dihydrobenzo[f]thieno[3,2-c][1,2]thiazepin-10-yl)amino)heptanoate]: less than 10 µM; for `CCOC(=O)CCCCCCNC1c2ccccc2N(C)S(=O)(=O)c2cc(Br)ccc21` (stereo not shown) [compound 81, Ethyl 7-((3-bromo-6-methyl-5,5-dioxido-6,11-dihydrodibenzo [c,f] [1,2]thiazepin-11-yl)amino)heptanoate]: 0.573 µM; for `CN1c2ccccc2C(NCCCCCCC(=O)O)c2ccc(Br)cc2S1(=O)=O` (stereo not shown) [compound 82, 7-((3-Bromo-6-methyl-5,5-dioxido-6,11-dihydrodibenzo[c,f][1,2]thiazepin-11-yl)amino)heptanoic acid hydrochloride salt]: 0.122 µM.
On the same count and under the same terms, the same measure for `CN1c2ccccc2C(NCCCO)c2ccc(Cl)cc2S1(=O)=O` (stereo not shown) [compound 83, 3-Chloro-11-((3-hydroxypropyl)amino)-6-methyl-6,11-dihydrodibenzo[c,f][1,2] iazepine 5,5-dioxide]: 1.81 µM.

The term EC50 denotes the concentration that produces a half-maximal response.
